Assay results: patent US20160101090A1, “INHIBITION OF TRK KINASE MEDIATED TUMOR GROWTH AND DISEASE PROGRESSION” (DECIPHERA PHARMACEUTICALS, LLC, priority 2014, published 2016)
Read-outs that look alike come from different tables or passages of the source.

Columns and labels:
[1] = molecular target: T1, NTRK1 (SEQ ID No. 1) recombinant kinase (Homo sapiens, UniProt P04629); assay: Recombinant NTRK1 kinase assay (ADP production coupled to pyruvate kinase/lactate dehydrogenase); format: biochemical; details: recombinant NTRK1 4.7 nM, ATP 1 mM
T1 construct: purchased Invitrogen
T1 sequence (P04629 with tags, fused parts or gaps): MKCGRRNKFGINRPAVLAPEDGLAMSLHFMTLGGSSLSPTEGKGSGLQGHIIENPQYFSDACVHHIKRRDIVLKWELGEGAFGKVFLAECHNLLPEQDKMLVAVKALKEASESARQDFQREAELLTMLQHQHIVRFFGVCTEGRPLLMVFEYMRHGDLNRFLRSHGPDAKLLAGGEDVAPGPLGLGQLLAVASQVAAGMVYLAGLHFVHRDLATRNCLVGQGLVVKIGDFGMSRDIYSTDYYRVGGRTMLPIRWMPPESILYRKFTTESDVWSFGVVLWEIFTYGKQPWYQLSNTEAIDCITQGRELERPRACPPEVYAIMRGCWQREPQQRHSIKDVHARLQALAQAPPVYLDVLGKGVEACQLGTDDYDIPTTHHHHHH
From the text: NTRK1 protein sequence used for screening (SEQ ID No. 1)

[2] = molecular target: T2, NTRK2 (SEQ ID No. 2) recombinant kinase (Homo sapiens, UniProt Q16620); assay: Recombinant NTRK2 kinase assay (ADP production coupled to pyruvate kinase/lactate dehydrogenase); format: biochemical; details: recombinant NTRK2 4 nM, ATP 1 mM
T2 construct: purchased Invitrogen
T2 sequence (Q16620 with tags, fused parts or gaps): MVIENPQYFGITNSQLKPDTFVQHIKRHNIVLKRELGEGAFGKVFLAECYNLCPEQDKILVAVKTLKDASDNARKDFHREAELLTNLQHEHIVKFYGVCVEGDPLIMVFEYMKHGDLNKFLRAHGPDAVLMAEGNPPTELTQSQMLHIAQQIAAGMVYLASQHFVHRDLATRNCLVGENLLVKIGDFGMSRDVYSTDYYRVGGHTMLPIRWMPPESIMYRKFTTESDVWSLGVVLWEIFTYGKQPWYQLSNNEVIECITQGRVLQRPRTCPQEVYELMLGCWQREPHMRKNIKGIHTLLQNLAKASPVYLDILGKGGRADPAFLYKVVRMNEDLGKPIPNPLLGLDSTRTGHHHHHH
From the text: NTRK2 protein sequence used for screening (SEQ ID No. 2)

[3] = tested on: Transfected NIH-3T3 ETV6-NTRK3 cells; assay: Transfected NIH-3T3 ETV6-NTRK3 cell proliferation assay (resazurin); format: cell-based; details: Mus musculus, NIH3T3, 144 h; transfected NIH-3T3 cells, six days, 0.5% FBS; read-out: IC50, inhibition of proliferation, ETV6-NTRK3 transfected NIH-3T3
Protocol: Transfected NIH-3T3 ETV6-NTRK3 cells were obtained from the laboratory of James Fagin, MD (Memorial Sloan Kettering Cancer Center). Briefly, cells were grown in DMEM media supplemented with 10% characterized fetal bovine serum, 1% Penicillin/Streptomycin/L-glutamine solution (Life Technologies, Carlsbad, Calif.) and 1 μg/mL puromycin (Invitrogen, Carlsbad, Calif.) at 37 degrees Celsius, 5% CO2, and 95% humidity. Cells were allowed to expand until reaching approximately 75% confluency at which point they were subcultured or harvested for assay use.

TPM3-NTRK1 = molecular target: T3, TPM3-NTRK1 (Homo sapiens, UniProt P04629); assay: KM-12 phospho-NTRK1 Western blot; format: cell-based; details: KM-12 cells, 4 h compound; read-out: IC50, inhibition of TPM3-NTRK1 phosphorylation
T3 construct: chromosomal translocation of the kinase domain of NTRK1, NTRK2, or NTRK3 with a variety of N-terminal fusion partners; TPM3 N-terminal portion (fusion partner, P06753); endogenous in cells; host or cells: KM-12 (NCI DCTD Tumor Repository); also grown as subcutaneous xenograft in mice; the other entry of the earlier key: TPM3 (P06753, Tropomyosin alpha-3 chain)
T3 sequence (P04629 with tags, fused parts or gaps): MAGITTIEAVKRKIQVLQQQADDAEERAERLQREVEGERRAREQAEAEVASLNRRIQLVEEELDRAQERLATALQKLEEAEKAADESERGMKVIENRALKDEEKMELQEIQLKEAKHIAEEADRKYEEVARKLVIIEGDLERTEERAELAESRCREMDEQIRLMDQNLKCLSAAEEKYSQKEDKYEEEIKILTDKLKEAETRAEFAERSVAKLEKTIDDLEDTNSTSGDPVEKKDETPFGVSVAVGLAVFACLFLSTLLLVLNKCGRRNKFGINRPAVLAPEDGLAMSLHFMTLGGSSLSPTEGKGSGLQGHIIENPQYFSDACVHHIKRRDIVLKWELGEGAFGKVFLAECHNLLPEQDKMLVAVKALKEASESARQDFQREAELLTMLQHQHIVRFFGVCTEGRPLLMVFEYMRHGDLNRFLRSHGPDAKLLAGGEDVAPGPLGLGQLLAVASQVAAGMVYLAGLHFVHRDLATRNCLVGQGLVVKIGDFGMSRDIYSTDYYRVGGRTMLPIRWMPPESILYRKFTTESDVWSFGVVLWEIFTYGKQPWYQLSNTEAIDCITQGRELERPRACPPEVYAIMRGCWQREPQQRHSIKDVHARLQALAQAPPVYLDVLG
Protocol: Briefly, cells were grown in RPMI 1640 media supplemented with 10% characterized fetal bovine serum and 1% Penicillin/Streptomycin/L-glutamine solution (Invitrogen, Carlsbad, Calif.) at 37 degrees Celsius, 5% CO2, and 95% humidity. Cells were allowed to expand until reaching 70-95% confluency at which point they were subcultured or harvested for assay use.
Two hundred fifty thousand cells in growth medium were added per well in a 24-well tissue-culture treated plate. The plate was incubated overnight at 37 degrees Celsius, 5% CO2, and 95% humidity. The next day, a serial dilution of test compound was added to the cells, and plates were incubated for 4 hours at 37 degrees Celsius, 5% CO2, and 95% humidity. Media was then aspirated, cells were washed with PBS, and then lysed. Cell lysates were separated by SDS-PAGE and transferred to PVDF. Phospho-NTRK1 (Tyr674/675) was detected using an antibody from Cell Signaling Technology (Beverly, Mass.), ECL Plus detection reagent (GE Healthcare, Piscataway, N.J.) and a Molecular Devices Storm 840 phosphorimager in fluorescence mode. Blots were stripped and probed for total NTRK1 using an antibody from Santa Cruz Biotech (Santa Cruz, Calif.). IC50 values were calculated using Prism software (Graphpad, San Diego, Calif.).

NTRK2 = molecular target: T4, NTRK2 (Homo sapiens, UniProt Q16620); assay: SK-N-SH (retinoic acid differentiated) phospho-NTRK2 Western blot; format: cell-based; details: SK-N-SH cells differentiated with all-trans retinoic acid, BDNF 100 ng/mL stimulated; read-out: IC50, inhibition of NTRK2 phosphorylation
T4 construct: endogenous in cells; host or cells: SK-N-SH (ATCC HTB-11), differentiated with 10 µM all-trans retinoic acid
T4 sequence (Q16620 32-822): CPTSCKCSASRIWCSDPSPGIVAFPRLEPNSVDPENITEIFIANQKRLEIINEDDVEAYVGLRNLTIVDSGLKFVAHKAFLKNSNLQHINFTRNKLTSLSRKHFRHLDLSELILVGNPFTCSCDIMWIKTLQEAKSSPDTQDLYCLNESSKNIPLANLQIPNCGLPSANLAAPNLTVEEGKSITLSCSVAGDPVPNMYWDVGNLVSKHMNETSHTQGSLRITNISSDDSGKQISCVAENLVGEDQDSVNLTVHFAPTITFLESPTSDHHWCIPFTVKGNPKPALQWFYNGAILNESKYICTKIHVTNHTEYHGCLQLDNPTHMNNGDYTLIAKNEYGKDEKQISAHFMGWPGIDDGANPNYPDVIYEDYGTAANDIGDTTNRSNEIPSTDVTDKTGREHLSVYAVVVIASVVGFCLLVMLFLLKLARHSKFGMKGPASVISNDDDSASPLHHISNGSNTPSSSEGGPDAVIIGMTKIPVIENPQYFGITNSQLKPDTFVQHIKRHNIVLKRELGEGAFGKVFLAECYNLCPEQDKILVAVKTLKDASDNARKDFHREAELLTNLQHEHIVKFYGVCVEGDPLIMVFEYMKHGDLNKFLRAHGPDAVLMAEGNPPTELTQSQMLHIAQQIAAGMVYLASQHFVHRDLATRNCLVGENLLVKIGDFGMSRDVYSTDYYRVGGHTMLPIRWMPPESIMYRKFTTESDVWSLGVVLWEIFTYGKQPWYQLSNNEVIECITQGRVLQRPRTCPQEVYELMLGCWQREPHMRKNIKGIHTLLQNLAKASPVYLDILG
Protocol: SK-N-SH cells (catalog #HTB-11) were obtained from the American Type Culture Collection (ATCC; Manassas, Va.). Briefly, SK-N-SH cells were grown in MEM medium supplemented with 10% characterized fetal bovine serum and 1% Penicillin-Streptomycin-L-glutamine solution (Invitrogen, Carlsbad, Calif.) at 37 degrees Celsius, 5% CO2, and 95% humidity. Cells were allowed to expand until reaching 70-95% confluency at which point they were subcultured. To induce expression of NTRK2, cells were grown in growth medium containing 10 μM all-trans retinoic acid for ten to fourteen days prior to harvesting cells for assay use.
(§1) Two hundred fifty thousand cells differentiated with 10 μM all-trans retinoic acid in growth medium were added per well in a 12-well tissue-culture treated plate. The plate was incubated overnight at 37 degrees Celsius, 5% CO2, and 95% humidity. The next day, growth media was aspirated, cells were washed with serum-free MEM media, and one milliliter serum-free MEM media was added per well. […] Phospho-NTRK2 (Tyr706/707) was detected using an antibody from Cell Signaling Technology (Beverly, Mass.), ECL Plus detection reagent (GE Healthcare, Piscataway, N.J.) and a Molecular Devices Storm 840 phosphorimager in fluorescence mode. […] IC50 values were calculated using Prism software (Graphpad, San Diego, Calif.).

[4] = tested on: KM-12 TPM3-NTRK1 xenograft; assay: KM-12 TPM3-NTRK1 xenograft model, single-agent efficacy; format: in vivo, Mice; details: PO, BID
From the text: Mice were implanted subcutaneously and treatment began on Day 5. Treatments ended on Day 25 after three weeks of treatment.

[5] = molecular target: T5, NTRK1 kinase phosphorylation (TPM3-NTRK1) (Homo sapiens, UniProt P04629); assay: KM-12 TPM3-NTRK1 xenograft model, inhibition of NTRK1 phosphorylation in tumors after a single dose; format: in vivo, Mice; details: KM12, mouse, po; for inhibition at 15 mg/kg: single dose 15 mg/kg PO; for inhibition at 7.5 mg/kg: single oral dose 7.5 mg/kg
T5 construct: chromosomal translocation of the kinase domain of NTRK1, NTRK2, or NTRK3 with a variety of N-terminal fusion partners; TPM3 N-terminal portion (fusion partner, P06753); endogenous in cells; host or cells: KM-12 (NCI DCTD Tumor Repository); also grown as subcutaneous xenograft in mice; the other entry of the earlier key: TPM3 (P06753, Tropomyosin alpha-3 chain)
From the text: (§2) Mice were implanted subcutaneously and a single treatment was given on Day 8. At time points after the single oral dose, tumors were resected, frozen, pulverized, and then lysed. Lysates were separated by SDS-PAGE and protein was transferred to PVDF. Phospho-NTRK1 (Tyr674/675) was detected using an antibody from Cell Signaling Technology (Beverly, Mass.), ECL Plus detection reagent (GE Healthcare, Piscataway, N.J.) and a Molecular Devices Storm 840 phosphorimager in fluorescence mode. Blots were stripped and probed for total NTRK1 using an antibody from Santa Cruz Biotech (Santa Cruz, Calif.).

[6] = tested on: NIH-3T3 ETV6-NTRK3 xenograft; assay: Transfected NIH-3T3 ETV6-NTRK3 xenograft model, single-agent efficacy; format: in vivo, Mice; details: 15 mg/kg, PO, BID, p<0.05
From the text: Mice were implanted subcutaneously and treatment began on Day 4. Treatments ended on Day 24 after three weeks of treatment.

[7] = tested on: NTRK3 kinase phosphorylation (ETV6-NTRK3); assay: Transfected NIH-3T3 ETV6-NTRK3 xenograft model, inhibition of NTRK3 phosphorylation in tumors after a single dose; format: in vivo, Mice; details: single dose 15 mg/kg PO
From the text: as §2, with “6.” for “8.”, “doses,” for “dose,”, “Phospho-NTRK3 (Tyr516)” for “Phospho-NTRK1 (Tyr674/675)”, “mode.” for “mode. Blots were stripped and probed for total NTRK1 using an antibody from Santa Cruz Biotech (Santa Cruz, Calif.).”

NTRK1 [8] = molecular target: T6, NTRK1 (Homo sapiens, UniProt P04629); assay: K562 phospho-NTRK1 Western blot; format: cell-based; design: endogenous in cells; details: K562 cells, 4 h compound, NGF 100 ng/mL stimulated; read-out: IC50, inhibition of NTRK1 phosphorylation
T6 sequence (P04629 33-796): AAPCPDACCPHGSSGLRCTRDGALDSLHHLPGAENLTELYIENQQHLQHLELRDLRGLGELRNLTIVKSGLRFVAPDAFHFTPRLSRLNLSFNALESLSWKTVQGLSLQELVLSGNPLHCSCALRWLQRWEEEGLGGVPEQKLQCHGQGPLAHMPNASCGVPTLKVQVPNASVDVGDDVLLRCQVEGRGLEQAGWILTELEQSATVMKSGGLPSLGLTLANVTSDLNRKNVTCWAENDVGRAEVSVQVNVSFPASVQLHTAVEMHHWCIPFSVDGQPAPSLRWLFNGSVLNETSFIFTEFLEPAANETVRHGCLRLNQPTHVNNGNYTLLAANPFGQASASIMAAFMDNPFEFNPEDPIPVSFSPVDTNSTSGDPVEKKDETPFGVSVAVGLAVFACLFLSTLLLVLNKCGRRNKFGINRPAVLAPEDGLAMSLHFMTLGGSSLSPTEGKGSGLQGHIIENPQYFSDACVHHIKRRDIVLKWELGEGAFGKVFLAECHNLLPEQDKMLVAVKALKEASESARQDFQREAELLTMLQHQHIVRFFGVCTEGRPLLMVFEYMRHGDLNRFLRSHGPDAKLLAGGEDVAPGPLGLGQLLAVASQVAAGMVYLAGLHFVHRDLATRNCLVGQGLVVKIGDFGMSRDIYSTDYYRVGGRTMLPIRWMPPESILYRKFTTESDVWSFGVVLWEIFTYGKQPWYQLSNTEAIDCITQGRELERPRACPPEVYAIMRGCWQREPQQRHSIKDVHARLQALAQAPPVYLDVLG
Protocol: (§3) K562 cells (catalog #CCL-243) were obtained from the American Type Culture Collection (ATCC; Manassas, Va.). Briefly, K562 cells were grown in suspension in IMDM medium supplemented with 10% characterized fetal bovine serum and 1% Penicillin-Streptomycin-L-glutamine solution (Invitrogen, Carlsbad, Calif.) at 37 degrees Celsius, 5% CO2, and 95% humidity. Cells were allowed to expand until reaching one to three million cells per milliliter at which point they were subcultured or harvested for assay use.
One million cells in serum-free IMDM media were added per well in a 24-well tissue-culture treated plate. A serial dilution of test compound was added to cells and plates were incubated for 4 hours at 37 degrees Celsius, 5% CO2, and 95% humidity. Cells were then stimulated for 10 minutes with 100 ng/mL NGF (R&D Systems, Minneapolis, Minn.). Cells pelleted by centrifugation, washed with PBS, then lysed. Cell lysates were separated by SDS-PAGE and transferred to PVDF. Phospho-NTRK1 (Tyr674/675) was detected using an antibody from Cell Signaling Technology (Beverly, Mass.), ECL Plus detection reagent (GE Healthcare, Piscataway, N.J.) and a Molecular Devices Storm 840 phosphorimager in fluorescence mode. Blots were stripped and probed for total NTRK1 using an antibody from Santa Cruz Biotech (Santa Cruz, Calif.). IC50 values were calculated using Prism software (Graphpad, San Diego, Calif.).

NTRK1 [9] = molecular target: T6, NTRK1; assay: SK-N-SH phospho-NTRK1 Western blot; format: cell-based; design: endogenous in cells; host or cells: SK-N-SH (ATCC HTB-11); details: SK-N-SH cells, 4 h compound, NGF 100 ng/mL stimulated; read-out: IC50, inhibition of NTRK1 phosphorylation
Protocol: as §3, with “SK-N-SH” for “K562”, “#HTB-11)” for “#CCL-243)”, “MEM” for “suspension in IMDM”, “70-95% confluency” for “one to three million cells per milliliter”
as §1, with “cells” for “cells differentiated with 10 μM all-trans retinoic acid”, “24-well” for “12-well”, “well. A serial dilution of test compound was added to the cells, and plates were incubated for 4 hours at 37 degrees Celsius, 5% CO2, and 95% humidity. Cells were then stimulated for 10 minutes with 100 ng/mL NGF (R&D Systems, Minneapolis, Minn.).” for “well.”, “Phospho-NTRK1 (Tyr674/675)” for “Phospho-NTRK2 (Tyr706/707)”

[10] = 3.75 mg/kg, not statistically significant

## O=C(Nc1cc(Oc2cc(F)c(NC(=O)C3(C(=O)Nc4ccc(F)cc4)CC3)cc2F)ccn1)C1CC1 [Compound 1, N-(4-(2-(cyclopropanecarboxamido)pyridin-4-yloxy)-2,5-difluorophenyl)-N′-(4)cyclopropane-1,1-dicarboxamide]
[1]
  IC50: 0.71 nM
[2]
  IC50: 4.6 nM
[3]
  IC50: 0.44 nM
TPM3-NTRK1
  IC50: 1.4 nM
NTRK2
  IC50: 0.24 nM
[4]; [10]
  Day 11 % T/C: 39%
  tumor growth delay: 4.5 days
[4]; 7.5 mg/kg, Day 5 to Day 25, p<0.05
  tumor growth delay: 11.4 days
[4]; 7.5 mg/kg, p<0.05
  Day 11 % T/C: 22%
[4]; 15 mg/kg, Day 5 to Day 25, p<0.05
  tumor growth delay: 17.8 days
[4]; 15 mg/kg, p<0.05
  Day 11 % T/C: 16%
[5]; 24 hours post dose, read-out: inhibition of NTRK1 phosphorylation
  inhibition at 15 mg/kg: 79%
[5]; through 18 hours post dose, read-out: inhibition of NTRK1 kinase phosphorylation in vivo
  inhibition at 15 mg/kg: ~95%
[5]; 12 hours post dose
  inhibition at 7.5 mg/kg: 66%
[5]; 18 hours post dose
  inhibition at 7.5 mg/kg: 74%
[5]; 24 hours post dose
  inhibition at 7.5 mg/kg: 59%
[5]; for 8 hours
  inhibition at 7.5 mg/kg: > 95%
[6]; Day 4 to Day 24
  tumor growth delay: 26.5 days
[6]
  Day 8 % T/C: 6%
[7]; 18 hours post dose
  inhibition of NTRK3 phosphorylation: 63%
[7]; 24 hours post dose
  inhibition of NTRK3 phosphorylation: 23%
[7]; through 12 hours post dose
  inhibition of NTRK3 kinase phosphorylation in vivo: > 95%
NTRK1 [8]
  IC50: 0.69 nM
NTRK1 [9]
  IC50: 1 nM
